Data set [1] addresses T1, FLT3 kinase (Homo sapiens, UniProt P36888).
T1 construct: purchased Invitrogen
T1 sequence (P36888 27-993): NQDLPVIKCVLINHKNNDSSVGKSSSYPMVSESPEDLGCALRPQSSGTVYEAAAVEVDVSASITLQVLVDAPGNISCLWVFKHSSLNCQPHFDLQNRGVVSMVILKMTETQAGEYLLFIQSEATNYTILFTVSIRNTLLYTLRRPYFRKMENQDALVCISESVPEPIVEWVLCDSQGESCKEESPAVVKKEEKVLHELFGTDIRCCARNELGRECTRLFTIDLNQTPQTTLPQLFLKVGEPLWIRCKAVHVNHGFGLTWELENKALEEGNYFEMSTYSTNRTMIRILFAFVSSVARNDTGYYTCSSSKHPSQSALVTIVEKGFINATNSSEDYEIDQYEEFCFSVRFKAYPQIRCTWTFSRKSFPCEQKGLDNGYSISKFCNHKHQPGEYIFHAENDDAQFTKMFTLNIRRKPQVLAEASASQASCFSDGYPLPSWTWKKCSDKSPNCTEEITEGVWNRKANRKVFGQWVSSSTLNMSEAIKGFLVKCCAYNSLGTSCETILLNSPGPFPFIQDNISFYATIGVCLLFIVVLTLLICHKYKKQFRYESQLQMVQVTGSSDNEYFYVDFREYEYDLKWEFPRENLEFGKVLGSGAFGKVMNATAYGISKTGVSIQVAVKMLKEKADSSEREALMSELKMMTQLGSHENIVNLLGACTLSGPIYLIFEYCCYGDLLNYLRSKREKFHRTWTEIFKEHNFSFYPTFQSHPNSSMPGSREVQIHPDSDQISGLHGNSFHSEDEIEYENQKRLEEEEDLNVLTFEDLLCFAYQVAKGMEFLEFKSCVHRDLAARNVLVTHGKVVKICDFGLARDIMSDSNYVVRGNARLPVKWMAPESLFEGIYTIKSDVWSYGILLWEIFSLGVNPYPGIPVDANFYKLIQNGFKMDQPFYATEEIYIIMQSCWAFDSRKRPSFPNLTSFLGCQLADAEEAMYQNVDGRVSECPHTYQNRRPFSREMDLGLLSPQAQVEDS
Put plainly: Biochemical enzyme inhibition assay (microfluidics, Caliper EZ Reader II), FLT3. As to conditions: for IC50: in vitro kinase assay, 60 min pre-incubation, ATP 190 µM, three independent experiments; for LE: ligand efficiency for FLT3 inhibition. The protocol: Kinase activity was measured in a microfluidics assay that monitors the separation of a phosphorylated product from substrate[31],[32]. […] After, 1 μL was transferred into a 384-well polypropylene assay plate (Greiner, Frickenhausen, Germany). The FLT3 enzyme (Invitrogen™, Grand Island, USA) was diluted in kinase buffer to a concentration of 2 nM and 5 µL of the enzyme mixture was transferred to the assay plate. The inhibitors/FLT3 enzyme were incubated for 60 minutes with minor shaking. […] For positive control, no inhibitor was added. For negative control, no enzyme was added. For running control, quizartinib was utilized. The plate was run until 10–20% conversion based on the positive control wells. The following separation conditions were utilized: upstream voltage −500V; downstream voltage, −1900V; chip pressure −0.8. Percent inhibition was measured for each well comparing starting peptide to phosphorylated product peaks relative to the baseline. Dose response curves, spanning the IC50 dose, were generated in GraphPad Prisim 6 and fit to an exponential one-phase decay line and IC50 values were obtained from the half-life value of the curve. IC50 values were generated in duplicate and error was calculated from the standard deviation between values.
S10. Biochemical Inhibition Assay:1,2 Kinase activity was measured in a microfluidics assay that monitors the separation of a phosphorylated product from substrate. The assay was run using a 12-sipper chip on a Caliper EZ Reader II (PerkinElmer®, Walthman, USA) with separation […]
Walthman, USA]). In 96-well polypropylene plates (Greiner, Frickenhausen, Germany) […]
After, 1 μL was transferred into a 384-well polypropylene assay plate (Greiner, Frickenhausen, Germany). The FLT3 enzyme (Invitrogen™, Grand Island, USA) was diluted in kinase buffer to a concentration of 2 nM and 5 µL of the enzyme mixture was transferred to the assay plate. The inhibitors/FLT3 enzyme were incubated for 60 minutes with minor shaking. A substrate mix was prepared containing ATP (Ambresco®, Solon, USA) and […]
USA) dissolved in kinase buffer, and 5 µL of the substrate mix was added to the assay plate.
For positive control, no inhibitor was added. For negative control, no enzyme was added. For running control, quizartinib was utilized. The plate was run until 10-20% conversion based on the positive control wells. The following separation conditions were utilized: upstream voltage -500V; downstream voltage, -1900V; chip pressure - 0.8. Percent inhibition was measured for each well comparing starting peptide to phosphorylated product peaks relative to the baseline. Dose response curves, spanning the IC50 dose, were generated in GraphPad Prisim 6 and fit to an exponential one-phase decay line and IC50 values were obtained from the half-life value of the curve. IC50 values were generated in duplicate and error was calculated from the standard deviation between values. […]

Like-named read-outs stand apart in the source and are kept apart here.

Turning to `CC(C)(C)c1cc(NC(=O)Cc2ccc(Nc3cc(Nc4ccc(S(C)(=O)=O)cc4)ncn3)cc2)n(-c2ccc(F)cc2)n1` [13g, 2-(4-(6-(4-(Methylsulfonyl)phenylamino)pyrimidin-4-ylamino)phenyl)-N-(3-tert-butyl-1-(4-fluorophenyl)-1H-pyrazol-5-yl)acetamide], the melting point (usually the temperature of the solid-liquid transition) fell in the range of 168 to 170 °C. Besides, in data set [1] (read-out: FLT3 IC50 (nM) ± SD), the IC50 (in general, the concentration that gives 50% inhibition) turned out to be 3230 ± 556 nM. The LE in data set [1] amounted to 0.17.
As for `COc1ccc(CNC(=O)Cc2ccc(Oc3cc(NC4CCN(Cc5ccccc5)CC4)ncn3)cc2)c(OC)c1` [13ak, N-(2,4-Dimethoxybenzyl)-2-(4-(6-(1-benzylpiperidin-4-ylamino)pyrimidin-4-yloxy)phenyl)acetamide], the melting point lay within 102 to 104 °C. The half-inhibitory concentration (IC50) in data set [1] (read-out: FLT3 IC50 (nM) ± SD) was 13600 ± 494 nM. The LE in data set [1] is recorded as 0.16.
In the same order, the values of `Cn1nc(C(C)(C)C)cc1NC(=O)Cc1ccc(Oc2cc(Nc3cccc(C(F)(F)F)c3)ncn2)cc1` [13f, 2-(4-(6-(3-(Trifluoromethyl)phenylamino)pyrimidin-4-yloxy)phenyl)-N-(3-tert-butyl-1-methyl-1H-pyrazol-5-yl)acetamide] are 140 to 142 °C, 961 ± 33.7 nM and 0.22.
In the case of `Cc1ccc(-n2nc(C(C)(C)C)cc2NC(=O)Cc2ccc(Nc3cc(Nc4ccc(S(C)(=O)=O)cc4)ncn3)cc2)cc1` [13h, 2-(4-(6-(4-(Methylsulfonyl)phenylamino)pyrimidin-4-ylamino)phenyl)-N-(3-tert-butyl-1-p-tolyl-1H-pyrazol-5-yl)acetamide], the melting point was in the range of 155 to 157 °C. In data set [1] (read-out: FLT3 IC50 (nM) ± SD), the IC50 amounted to 4840 ± 170 nM. For the same compound, the LE in data set [1] came to 0.16.
In the same order, the values of `CCCCNc1cc(Oc2ccc(CC(=O)Nc3nc(C(C)(C)C)cs3)cc2)ncn1` [13aj, 2-(4-(6-(Butylamino)pyrimidin-4-yloxy)phenyl)-N-(4-tert-butylthiazol-2-yl)acetamide] are 102 to 104 °C, 7580 ± 132 nM and 0.23.
Taken in the same sequence, the figures for `CC(C)(C)c1cc(NC(=O)Cc2ccc(Nc3cc(Nc4cccc(C(F)(F)F)c4)ncn3)cc2)no1` [13m, 2-(4-(6-(3-(Trifluoromethyl)phenylamino)pyrimidin-4-ylamino)phenyl)-N-(5-tert-butylisoxazol-3-yl)acetamide] were 254 to 256 °C, 1180 ± 527 nM and 0.22.
Regarding `CS(=O)(=O)c1ccc(Nc2cc(Nc3ccc(CC(=O)Nc4cccc(C(F)(F)F)c4)cc3)ncn2)cc1` [13s, 2-(4-(6-(4-(Methylsulfonyl)phenylamino)pyrimidin-4-ylamino)phenyl)-N-(3-(trifluoromethyl)phenyl)acetamide], the melting point is 225 to 227 °C. Besides, the IC50 in data set [1] (read-out: FLT3 IC50 (nM) ± SD) is 860 ± 30 nM. The compound further gave an LE in data set [1] of 0.22.
Take `Cn1nc(C(C)(C)C)cc1NC(=O)Nc1ccc(Nc2cc(Nc3ccc(S(C)(=O)=O)cc3)ncn2)cc1` [24a, 1-(4-(6-(4-(Methylsulfonyl)phenylamino)pyrimidin-4-ylamino)phenyl)-3-(3-tert-butyl-1-methyl-1H-pyrazol-5-yl)urea]: the melting point is 238 to 240 °C. Moreover, in data set [1] (enzymatic FLT3 IC50 compared with 13a), the “fold less active than 13a on FLT3” value is ~ 3 fold. Besides, the IC50 in data set [1] (read-out: FLT3 IC50 (nM) ± SD) amounted to 41 ± 6.8 nM. This compound had an LE in data set [1] of 0.27.
As to `CS(=O)(=O)c1ccc(Nc2cc(Nc3ccc(CC(=O)NC4CC4)cc3)ncn2)cc1` [13ae, 2-(4-(6-(4-(Methylsulfonyl)phenylamino)pyrimidin-4-ylamino)phenyl)-N-cyclopropylacetamide], the melting point lay in the range of 110 to 112 °C. Also, in data set [1] (read-out: FLT3 IC50 (nM) ± SD), the IC50 came out at 5550 ± 169 nM. Moreover, the LE in data set [1] is 0.23.
Taken in the same sequence, the figures for `CC(C)(C)c1cc(NC(=O)Cc2ccc(Nc3cc(N4CCOCC4)ncn3)cc2)no1` [13p, 2-(4-(6-Morpholinopyrimidin-4-ylamino)phenyl)-N-(5-tert-butylisoxazol-3-yl)acetamide] were 218 to 220 °C, 395 ± 78 nM and 0.28.
In the same order, the values of `CN(C)c1cc(Oc2ccc(CC(=O)Nc3cc(C(C)(C)C)on3)cc2)ncn1` [13q, 2-(4-(6-(Dimethylamino)pyrimidin-4-yloxy)phenyl)-N-(5-tert-butylisoxazol-3-yl)acetamide] are 170 to 172 °C, 8760 ± 127 nM and 0.24.
In the same order, the values of `O=C(Cc1ccc(Nc2cc(N3CCOCC3)ncn2)cc1)NC1CC1` [13ai, 2-(4-(6-Morpholinopyrimidin-4-ylamino)phenyl)-N-cyclopropylacetamide] are 110 to 112 °C, 15100 ± 168 nM and 0.25.
The compound `CC(C)(C)c1cc(NC(=O)Cc2ccc(Nc3cc(Oc4ccc(Br)cc4)ncn3)cc2)no1` [13o, 2-(4-(6-(4-Bromophenoxy)pyrimidin-4-ylamino)phenyl)-N-(5-tert-butylisoxazol-3-yl)acetamide] gave a melting point of 188 to 190 °C. Besides, the concentration for half-maximal inhibition (IC50) in data set [1] (FLT3 IC50 (nM) ± SD) turned out to be 14800 ± 248 nM. In addition, the LE in data set [1] is 0.19.
Turning to `CC(C)(C)c1cc(NC(=O)Nc2ccc(Nc3cc(Nc4ccc(S(C)(=O)=O)cc4)ncn3)cc2)no1` [24c, 1-(4-(6-(4-(Methylsulfonyl)phenylamino)pyrimidin-4-ylamino)phenyl)-3-(5-tert-butylisoxazol-3-yl)urea], the melting point fell in the range of 245 to 247 °C. Moreover, in data set [1] (read-out: FLT3 IC50 (nM) ± SD), the half-inhibitory concentration (IC50) amounted to 29 ± 1.9 nM. The LE in data set [1] is 0.28.

The values above are taken from article PMC5829162, “Rational Design, Synthesis and Biological Evaluation of Pyrimidine-4,6-diamine derivatives as Type-II inhibitors of FLT3 Selective Against c-KIT” (Scientific Reports, 2018).
